Measured values as given in paper PMC3639963, “A New Class of Small Molecule Inhibitor of BMP Signaling” (PLoS ONE, 2013).

Legend:
Test in all cases: Nanosyn kinase profiling
Assay type in all cases: biochemical
Details in all cases: read-out: Percentage inhibition; for inhibition at 0.1 µM: 0.1 µM inhibitor; for inhibition at 1 µM: 1 µM inhibitor
AKT3 = molecular target: T1, AKT3 (Homo sapiens, UniProt Q9Y243)
T1 construct: purchased Nanosyn (enzymatic panel); SGC in-house recombinant human kinases (DSF panel); Invitrogen (ALK1-6)
T1 sequence (Q9Y243 whole entry): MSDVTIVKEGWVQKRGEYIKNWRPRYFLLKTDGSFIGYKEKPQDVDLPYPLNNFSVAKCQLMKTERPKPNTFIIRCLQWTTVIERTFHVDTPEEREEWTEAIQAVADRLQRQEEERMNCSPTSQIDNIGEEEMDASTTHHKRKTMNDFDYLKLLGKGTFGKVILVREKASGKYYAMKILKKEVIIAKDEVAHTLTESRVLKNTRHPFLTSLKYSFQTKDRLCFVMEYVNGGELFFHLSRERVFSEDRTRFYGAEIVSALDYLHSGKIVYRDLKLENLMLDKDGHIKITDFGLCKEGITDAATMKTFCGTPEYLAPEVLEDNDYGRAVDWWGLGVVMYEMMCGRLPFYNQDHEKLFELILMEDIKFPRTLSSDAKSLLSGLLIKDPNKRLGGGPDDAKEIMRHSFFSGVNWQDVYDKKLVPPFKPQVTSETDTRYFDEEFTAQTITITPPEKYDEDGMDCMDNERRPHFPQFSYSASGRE
Procedure, shortened: (§1)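 Percent inhibition of each kinase was measured with the inhibitor at 0.1 µM and at 1 µM, as part of a 200-kinase human selectivity panel.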

DAPK1 = molecular target: T2, DAPK1 (Homo sapiens, UniProt P53355)
T2 construct: purchased Nanosyn (enzymatic panel); SGC in-house recombinant human kinases (DSF panel); Invitrogen (ALK1-6)
T2 sequence (P53355 whole entry): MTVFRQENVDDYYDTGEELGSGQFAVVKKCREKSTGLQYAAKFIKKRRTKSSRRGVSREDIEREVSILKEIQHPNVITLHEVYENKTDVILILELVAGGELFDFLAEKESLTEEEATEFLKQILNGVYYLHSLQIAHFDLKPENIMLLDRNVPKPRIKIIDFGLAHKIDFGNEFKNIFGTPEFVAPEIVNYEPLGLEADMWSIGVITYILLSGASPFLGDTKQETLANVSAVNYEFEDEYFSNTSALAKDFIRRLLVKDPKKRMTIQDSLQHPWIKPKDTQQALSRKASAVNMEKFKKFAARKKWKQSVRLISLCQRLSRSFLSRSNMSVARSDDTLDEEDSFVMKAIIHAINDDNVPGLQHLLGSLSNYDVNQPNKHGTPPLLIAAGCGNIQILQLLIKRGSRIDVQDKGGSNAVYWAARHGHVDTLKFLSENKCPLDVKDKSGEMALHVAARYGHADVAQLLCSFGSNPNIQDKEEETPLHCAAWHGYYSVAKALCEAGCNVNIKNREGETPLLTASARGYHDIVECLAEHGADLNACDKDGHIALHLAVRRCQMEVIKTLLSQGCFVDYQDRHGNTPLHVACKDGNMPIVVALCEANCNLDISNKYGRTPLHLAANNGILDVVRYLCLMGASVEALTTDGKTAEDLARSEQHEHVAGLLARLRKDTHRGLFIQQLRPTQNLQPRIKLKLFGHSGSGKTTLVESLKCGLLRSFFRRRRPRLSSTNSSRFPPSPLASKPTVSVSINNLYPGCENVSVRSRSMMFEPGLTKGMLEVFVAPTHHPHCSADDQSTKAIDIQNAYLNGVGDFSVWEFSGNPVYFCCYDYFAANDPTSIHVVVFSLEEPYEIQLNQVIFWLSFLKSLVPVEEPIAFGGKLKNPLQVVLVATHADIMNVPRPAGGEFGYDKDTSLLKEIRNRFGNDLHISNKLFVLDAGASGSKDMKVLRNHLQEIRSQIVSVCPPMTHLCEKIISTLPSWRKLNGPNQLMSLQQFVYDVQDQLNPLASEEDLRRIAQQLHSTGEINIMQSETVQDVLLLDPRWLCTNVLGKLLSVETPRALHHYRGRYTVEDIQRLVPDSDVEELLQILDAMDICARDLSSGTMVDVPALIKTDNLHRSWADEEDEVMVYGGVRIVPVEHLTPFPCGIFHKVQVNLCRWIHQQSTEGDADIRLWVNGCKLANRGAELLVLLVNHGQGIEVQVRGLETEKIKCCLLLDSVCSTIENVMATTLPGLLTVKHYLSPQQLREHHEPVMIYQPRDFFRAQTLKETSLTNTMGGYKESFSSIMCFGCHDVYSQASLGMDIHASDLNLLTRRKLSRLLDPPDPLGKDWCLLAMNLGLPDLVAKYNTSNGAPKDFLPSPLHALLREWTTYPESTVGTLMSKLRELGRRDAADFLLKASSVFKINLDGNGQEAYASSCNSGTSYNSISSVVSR
Procedure, shortened: as §1

JAK2 = molecular target: T3, JAK2 (Homo sapiens, UniProt O60674)
T3 construct: purchased Nanosyn (enzymatic panel); SGC in-house recombinant human kinases (DSF panel); Invitrogen (ALK1-6)
T3 sequence (O60674 whole entry): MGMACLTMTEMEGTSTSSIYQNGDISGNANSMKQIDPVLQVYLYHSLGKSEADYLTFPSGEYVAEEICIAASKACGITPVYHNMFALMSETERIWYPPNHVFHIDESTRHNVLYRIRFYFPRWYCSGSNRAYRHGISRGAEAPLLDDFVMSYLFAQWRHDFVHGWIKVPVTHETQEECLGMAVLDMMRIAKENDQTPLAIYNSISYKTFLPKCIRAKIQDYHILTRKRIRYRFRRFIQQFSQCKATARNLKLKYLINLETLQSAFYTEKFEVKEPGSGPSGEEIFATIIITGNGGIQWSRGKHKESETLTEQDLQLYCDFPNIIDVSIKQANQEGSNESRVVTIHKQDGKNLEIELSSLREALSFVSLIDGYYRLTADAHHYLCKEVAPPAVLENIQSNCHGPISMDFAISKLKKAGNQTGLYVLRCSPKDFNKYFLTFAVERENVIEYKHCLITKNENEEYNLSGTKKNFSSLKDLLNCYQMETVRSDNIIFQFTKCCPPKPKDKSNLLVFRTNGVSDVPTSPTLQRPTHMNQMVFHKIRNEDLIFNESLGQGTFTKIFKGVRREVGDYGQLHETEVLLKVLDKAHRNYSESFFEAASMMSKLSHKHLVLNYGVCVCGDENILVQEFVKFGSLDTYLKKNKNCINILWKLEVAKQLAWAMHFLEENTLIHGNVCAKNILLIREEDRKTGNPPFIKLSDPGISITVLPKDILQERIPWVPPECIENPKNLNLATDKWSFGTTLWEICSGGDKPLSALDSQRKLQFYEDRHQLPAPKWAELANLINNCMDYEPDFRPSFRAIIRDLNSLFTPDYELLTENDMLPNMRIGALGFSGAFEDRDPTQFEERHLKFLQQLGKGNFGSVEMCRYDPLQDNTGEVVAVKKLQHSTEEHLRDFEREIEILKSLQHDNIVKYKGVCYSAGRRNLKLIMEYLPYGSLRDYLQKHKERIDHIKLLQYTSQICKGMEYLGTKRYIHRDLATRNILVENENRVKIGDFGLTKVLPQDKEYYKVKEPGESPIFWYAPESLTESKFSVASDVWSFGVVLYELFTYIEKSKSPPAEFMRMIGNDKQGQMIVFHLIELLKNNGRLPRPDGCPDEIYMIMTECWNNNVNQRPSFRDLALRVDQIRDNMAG
Procedure, shortened: as §1

FLT1 = molecular target: T4, FLT1 (Homo sapiens, UniProt P17948)
T4 construct: purchased Nanosyn (enzymatic panel); SGC in-house recombinant human kinases (DSF panel); Invitrogen (ALK1-6)
T4 sequence (P17948 27-1338): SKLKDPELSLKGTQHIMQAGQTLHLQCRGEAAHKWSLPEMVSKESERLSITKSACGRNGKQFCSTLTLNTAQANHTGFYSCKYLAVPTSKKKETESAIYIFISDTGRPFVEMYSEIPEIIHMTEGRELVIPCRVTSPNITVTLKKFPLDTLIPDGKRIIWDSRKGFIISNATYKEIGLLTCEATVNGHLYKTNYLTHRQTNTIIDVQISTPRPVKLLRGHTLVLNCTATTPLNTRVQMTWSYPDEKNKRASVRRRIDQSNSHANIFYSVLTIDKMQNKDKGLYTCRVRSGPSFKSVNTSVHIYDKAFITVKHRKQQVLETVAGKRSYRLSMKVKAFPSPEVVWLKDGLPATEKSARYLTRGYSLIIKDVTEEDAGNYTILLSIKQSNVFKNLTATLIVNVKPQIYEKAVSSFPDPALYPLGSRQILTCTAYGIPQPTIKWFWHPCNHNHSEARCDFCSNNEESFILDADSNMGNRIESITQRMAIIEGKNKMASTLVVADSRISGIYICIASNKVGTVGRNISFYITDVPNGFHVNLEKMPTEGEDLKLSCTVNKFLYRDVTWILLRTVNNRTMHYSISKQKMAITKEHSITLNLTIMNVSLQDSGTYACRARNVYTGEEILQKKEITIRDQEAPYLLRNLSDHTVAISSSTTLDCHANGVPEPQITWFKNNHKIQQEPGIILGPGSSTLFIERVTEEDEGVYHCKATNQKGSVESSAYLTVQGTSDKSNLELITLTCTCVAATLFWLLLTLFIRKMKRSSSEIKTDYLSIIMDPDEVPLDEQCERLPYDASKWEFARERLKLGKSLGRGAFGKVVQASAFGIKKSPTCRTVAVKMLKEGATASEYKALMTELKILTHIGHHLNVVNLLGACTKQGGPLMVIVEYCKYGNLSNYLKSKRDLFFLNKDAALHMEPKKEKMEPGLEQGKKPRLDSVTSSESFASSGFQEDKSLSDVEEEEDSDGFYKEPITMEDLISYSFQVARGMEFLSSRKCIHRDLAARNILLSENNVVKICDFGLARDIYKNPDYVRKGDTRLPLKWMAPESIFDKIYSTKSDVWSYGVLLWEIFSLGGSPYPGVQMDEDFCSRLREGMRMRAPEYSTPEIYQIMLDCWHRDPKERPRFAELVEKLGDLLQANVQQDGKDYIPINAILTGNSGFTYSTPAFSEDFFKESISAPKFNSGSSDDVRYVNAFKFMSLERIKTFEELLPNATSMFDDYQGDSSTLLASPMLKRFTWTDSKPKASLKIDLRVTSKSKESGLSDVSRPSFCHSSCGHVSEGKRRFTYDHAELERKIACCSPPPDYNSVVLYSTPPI
Procedure, shortened: as §1

CK1γ2 = molecular target: T5, CK1γ2 (Homo sapiens, UniProt P78368)
T5 construct: purchased Nanosyn (enzymatic panel); SGC in-house recombinant human kinases (DSF panel); Invitrogen (ALK1-6)
Procedure, shortened: as §1

BMX = molecular target: T6, BMX (Homo sapiens, UniProt P51813)
T6 construct: purchased Nanosyn (enzymatic panel); SGC in-house recombinant human kinases (DSF panel); Invitrogen (ALK1-6)
T6 sequence (P51813 1-675): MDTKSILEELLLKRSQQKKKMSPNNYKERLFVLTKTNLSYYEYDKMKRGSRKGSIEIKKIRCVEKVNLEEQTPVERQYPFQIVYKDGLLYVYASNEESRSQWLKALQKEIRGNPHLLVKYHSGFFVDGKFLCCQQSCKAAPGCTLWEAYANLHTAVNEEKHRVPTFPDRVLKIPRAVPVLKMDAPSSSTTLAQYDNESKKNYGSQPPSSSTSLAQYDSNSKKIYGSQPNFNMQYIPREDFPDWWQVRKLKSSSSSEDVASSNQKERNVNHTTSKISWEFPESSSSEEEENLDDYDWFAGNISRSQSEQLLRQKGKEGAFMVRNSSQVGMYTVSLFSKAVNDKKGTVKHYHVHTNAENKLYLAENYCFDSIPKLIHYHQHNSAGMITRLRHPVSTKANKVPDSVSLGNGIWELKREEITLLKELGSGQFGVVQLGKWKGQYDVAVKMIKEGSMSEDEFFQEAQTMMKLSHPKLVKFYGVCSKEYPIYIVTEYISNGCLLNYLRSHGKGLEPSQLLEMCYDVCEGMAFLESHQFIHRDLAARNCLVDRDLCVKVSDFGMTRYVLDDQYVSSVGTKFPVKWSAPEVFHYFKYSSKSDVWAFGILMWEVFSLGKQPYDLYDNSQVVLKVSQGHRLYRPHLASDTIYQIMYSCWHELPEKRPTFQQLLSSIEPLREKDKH
Procedure, shortened: as §1

NEK6 = molecular target: T7, NEK6 (Homo sapiens, UniProt Q9HC98)
T7 construct: purchased Nanosyn (enzymatic panel); SGC in-house recombinant human kinases (DSF panel); Invitrogen (ALK1-6)
T7 sequence (Q9HC98 whole entry): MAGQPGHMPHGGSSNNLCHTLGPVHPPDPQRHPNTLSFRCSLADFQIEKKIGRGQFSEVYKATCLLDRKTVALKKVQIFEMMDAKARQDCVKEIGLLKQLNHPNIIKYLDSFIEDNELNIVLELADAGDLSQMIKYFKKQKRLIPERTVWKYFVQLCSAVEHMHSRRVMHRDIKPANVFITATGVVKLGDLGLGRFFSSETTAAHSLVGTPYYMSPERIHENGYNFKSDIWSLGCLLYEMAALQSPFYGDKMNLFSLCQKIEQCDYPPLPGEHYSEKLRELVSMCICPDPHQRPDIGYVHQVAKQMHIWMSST
Procedure, shortened: as §1

P38α = molecular target: T8, P38α (Homo sapiens, UniProt Q16539)
T8 construct: purchased Nanosyn (enzymatic panel); SGC in-house recombinant human kinases (DSF panel); Invitrogen (ALK1-6)
T8 sequence (Q16539 whole entry): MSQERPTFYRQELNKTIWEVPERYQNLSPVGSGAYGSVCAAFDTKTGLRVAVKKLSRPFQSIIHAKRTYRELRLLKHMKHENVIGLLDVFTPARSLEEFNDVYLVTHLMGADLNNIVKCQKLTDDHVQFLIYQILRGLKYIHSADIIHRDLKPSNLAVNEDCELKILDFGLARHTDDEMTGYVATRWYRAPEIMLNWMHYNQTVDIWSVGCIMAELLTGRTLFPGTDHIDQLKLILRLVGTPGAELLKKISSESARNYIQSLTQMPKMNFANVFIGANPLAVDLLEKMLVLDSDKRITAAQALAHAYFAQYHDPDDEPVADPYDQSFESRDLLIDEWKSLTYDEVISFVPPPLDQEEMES
Procedure, shortened: as §1

PKCι = molecular target: T9, PKCι (Homo sapiens, UniProt P41743)
T9 construct: purchased Nanosyn (enzymatic panel); SGC in-house recombinant human kinases (DSF panel); Invitrogen (ALK1-6)
T9 sequence (P41743 1-596): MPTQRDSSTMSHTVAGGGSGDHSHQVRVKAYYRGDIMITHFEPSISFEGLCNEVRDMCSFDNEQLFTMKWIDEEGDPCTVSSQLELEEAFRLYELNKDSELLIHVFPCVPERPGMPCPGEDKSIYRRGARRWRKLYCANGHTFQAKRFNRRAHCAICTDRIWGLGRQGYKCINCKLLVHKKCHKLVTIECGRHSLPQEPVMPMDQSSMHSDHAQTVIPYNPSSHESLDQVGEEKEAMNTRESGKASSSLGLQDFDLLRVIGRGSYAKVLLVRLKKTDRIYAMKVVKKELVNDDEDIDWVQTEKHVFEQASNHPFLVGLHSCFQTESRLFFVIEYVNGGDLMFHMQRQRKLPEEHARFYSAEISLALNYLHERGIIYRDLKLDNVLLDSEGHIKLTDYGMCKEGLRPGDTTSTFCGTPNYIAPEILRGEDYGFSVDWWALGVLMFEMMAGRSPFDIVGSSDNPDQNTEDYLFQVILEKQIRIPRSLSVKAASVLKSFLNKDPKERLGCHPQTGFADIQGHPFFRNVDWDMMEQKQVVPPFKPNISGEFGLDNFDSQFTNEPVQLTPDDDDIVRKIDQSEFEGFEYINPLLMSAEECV
Procedure, shortened: as §1

PRKD3 = molecular target: T10, PRKD3 (Homo sapiens, UniProt O94806)
T10 construct: purchased Nanosyn (enzymatic panel); SGC in-house recombinant human kinases (DSF panel); Invitrogen (ALK1-6)
T10 sequence (O94806 1-890): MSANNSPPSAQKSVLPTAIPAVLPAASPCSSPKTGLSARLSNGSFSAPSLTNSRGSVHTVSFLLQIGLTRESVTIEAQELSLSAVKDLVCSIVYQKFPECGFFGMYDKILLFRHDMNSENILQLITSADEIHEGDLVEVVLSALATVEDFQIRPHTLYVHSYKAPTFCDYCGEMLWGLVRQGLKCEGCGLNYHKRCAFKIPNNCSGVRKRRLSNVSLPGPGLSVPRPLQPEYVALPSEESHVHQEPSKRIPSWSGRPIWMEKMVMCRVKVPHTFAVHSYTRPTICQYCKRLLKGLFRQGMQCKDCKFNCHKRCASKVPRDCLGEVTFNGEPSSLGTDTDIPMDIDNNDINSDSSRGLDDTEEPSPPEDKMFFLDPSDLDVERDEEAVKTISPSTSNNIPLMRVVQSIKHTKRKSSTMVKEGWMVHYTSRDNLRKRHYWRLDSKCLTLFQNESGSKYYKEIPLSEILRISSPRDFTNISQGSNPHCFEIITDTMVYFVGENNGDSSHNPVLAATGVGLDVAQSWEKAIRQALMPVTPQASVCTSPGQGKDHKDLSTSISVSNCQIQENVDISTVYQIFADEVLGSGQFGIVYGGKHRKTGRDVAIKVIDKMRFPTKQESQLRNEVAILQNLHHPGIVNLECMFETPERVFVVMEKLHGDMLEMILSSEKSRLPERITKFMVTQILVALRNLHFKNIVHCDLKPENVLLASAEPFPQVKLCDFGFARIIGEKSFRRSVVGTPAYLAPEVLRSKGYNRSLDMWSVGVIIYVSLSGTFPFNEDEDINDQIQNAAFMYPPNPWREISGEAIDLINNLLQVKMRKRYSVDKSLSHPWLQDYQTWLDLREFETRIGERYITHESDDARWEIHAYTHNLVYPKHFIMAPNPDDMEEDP
Procedure, shortened: as §1

Compound | inhibition at 0.1 µM (AKT3) | inhibition at 1 µM (AKT3) | inhibition at 0.1 µM (DAPK1) | inhibition at 1 µM (DAPK1) | inhibition at 0.1 µM (JAK2) | inhibition at 1 µM (JAK2) | inhibition at 0.1 µM (FLT1) | inhibition at 1 µM (FLT1) | inhibition at 0.1 µM (CK1γ2) | inhibition at 1 µM (CK1γ2) | inhibition at 0.1 µM (BMX) | inhibition at 1 µM (BMX) | inhibition at 0.1 µM (NEK6) | inhibition at 1 µM (NEK6) | inhibition at 0.1 µM (P38α) | inhibition at 1 µM (P38α) | inhibition at 0.1 µM (PKCι) | inhibition at 1 µM (PKCι) | inhibition at 0.1 µM (PRKD3) | inhibition at 1 µM (PRKD3)
COc1cc(-c2cc(-c3cccc(O)c3)cnc2N)cc(OC)c1OC [K02288, 3-[6-amino-5-(3,4,5-trimethoxy-phenyl)-pyridin-3-yl]-phenol] | -2% | 1.2% | -1% | -1% | 0% | 0% | 0% | -2% | -1% | 5.5% | 0.5% | 19% | -2% | -1% | -3% | 1.5% | 0.3% | 1.6% | -1% | 3.2%
c1ccc2c(-c3cnn4cc(-c5ccc(N6CCNCC6)cc5)cnc34)ccnc2c1 [LDN-193189] | 0.2% | 1.5% | 1.5% | 0.4% | 2% | 0.5% | 0% | 17% | 1.6% | 3.9% | 0.2% | 4% | 2.3% | -1% | 4.4% | 3.3% | 1.4% | 1.5% | 3.2% | 13%
